Experimental data reported in publication PMC8750417, “Intracellular Amplifiers of Reactive Oxygen Species Affecting Mitochondria as Radiosensitizers” (Cancers, 2021).

Experiments:
A2780 cells [1] = assay: Generation of nitric oxide (DAF-FM diacetate), A2780; assay type: cell-based, human; conditions: 2 h
Procedure: with CO2 (5%) at 37 °C for 2 h. Next, the cells were detached from the culture dish using trypsin/EDTA (0.025%/0.01%, v/v, 200 µL). The cells were re-suspended in RPMI 1640 medium containing 5% FBS, 1% L-glutamine and 1% penicillin/streptomycin (200 µL).
Finally, the fluorescence of live cells (λex = 488 nm, λem = 530 nm) in the suspensions was determined by using flow cytometry (Figure 4C).
Figure S61. Representative flow cytometric histograms used for setting up Figure 4C.
Generation of nitric oxide in A2780 cells
A2780 cells were seeded into 96 well culture plates at the same cell concentration and in the same medium as applied for the assay for monitoring mROS described above. On the day of the experiment, the cells were washed twice with DPBS buffer and the medium was replaced with HBSS (100 μL). […]
The cells were re-suspended in RPMI 1640 medium containing 5% FBS, 1% L-glutamine and 1% penicillin/streptomycin (100 µL). Finally, the fluorescence of live cells (λex = 488 nm, λem = 530 nm) in the suspensions was determined by using flow cytometry (Figure […]
Figure S62. Fluorescence of DAF-FM diacetate-loaded A2780 cells treated either with 2c or the carrier. *: p<0.05, Student’s t test. […]

[2] = tested on: mononuclear cells (MNCs) from healthy donors; assay: Viability of primary mononuclear cells (CellTiter Glo); assay type: cell-based, human; conditions: primary MNC from six healthy donors, 48 h
Procedure: Afterwards, the cells were washed with DPBS and a fresh portion of RPMI 1640 medium containing 5% FBS, 1% L-glutamine and 1% penicillin/streptomycin (1 mL) was added.
The fluorescence images were taken with a Zeiss Axio Vert.A1 fluorescence microscope […]
For SBLF9 the same procedure was applied except that Ham's F-12K (Kaighn's)-Medium supplemented with 15 % FBS, 2 % non-essential amino acid mix, and 1 % penicillin/streptomycin was used for cell seeding and incubation with the prodrug or the carrier. A cell density of 40 cells/µL was used.
Determination of viability of primary cancer (CLL) and normal (MNC) cells in the […]
Clinical samples from chronic lymphocytic leukemia (CLL) patients (N=6, CLL cells) and healthy donors (N=6; peripheral blood mononuclear cells, MNCs) were collected at the University Hospital Heidelberg, Germany. Informed consent was obtained in accordance with the Declaration of Helsinki. Sample collection and analysis was approved by the ethics committee of the University of Heidelberg (S-254/2016). Blood was separated by a Ficoll gradient (GE Healthcarey), and cells were cryopreserved. […]
4x10^4 cells per well. […] Cell viability was assessed by quantification of ATP (CellTiter Glo®, Promega) 48 hours after drug application.
Luminescence was measured on a Tecan Infinite F200 Microplate Reader. Viability was calculated as % of solvent (DMSO) treated control. […]

A2780 cells [3] = tested on: A2780 cells; design: method as in PMID 30035345; conditions: relative to 4-(N-ferrocenyl-N-benzylaminocarbonyloxymethyl)-phenylboronic acid pinacol ester; cited from earlier work

SMILES	level of NO vs carrier (A2780 cells [1])	IC50 [2] [µM]	efficacy of cellular uptake relative to reference NAAF prodrug (A2780 cells [3])
CC1(C)OB(c2ccc(COC(=O)N(Cc3cn(Cc4ccc(Cn5cc(Cc6ccccc6)nn5)cc4)nn3)[c-]3cccc3)cc2)OC1(C)C.[Fe+2].c1cc[cH-]c1 [2c]	higher than that in A2780 cells treated with DMSO (carrier) only	12 ± 3	–
CCOC(=O)CCCCCn1cc(CN(C(=O)OCc2ccc(B3OC(C)(C)C(C)(C)O3)cc2)[c-]2cccc2)nn1.[Fe+2].c1cc[cH-]c1 [compound 1]	–	–	ca. 50%
